Non-standard residues stand in square brackets, D forms with d. Residues, ends and D or L forms follow the SMILES beside them.
Tests used:
[1] = target: T1, vitronectin receptor aVβ3 (Homo sapiens, UniProt P05106+P06756); assay: Pentapeptides as inhibitors of αVβ3 (immobilized), solid-phase inhibition assay; settings: αVβ3 from human placental extracts, binding of vitronectin, read-out: IC50 VN: αvβ3
T1 construct: Integrin αVβ3 is purified from human placental extracts; from tissue; host or cells: human placenta (extracts)
Description: Preparation and Characterization of Integrin αVβ3: Integrin αVβ3 is purified from human placental extracts by affinity chromatography on GRGDSPK peptide. Extraction and chromatography follows previously published protocols except that Triton X-100 is replaced by 25 mM octyl-P-D-glucopyranoside. Bound integrin is eluted with 10 mM EDTA into 1.5-ml vials containing 25 pl of 1 M MgCl, and concentrated in Centricon 100 microconcentrators. They are stored at 4° C. in neutral buffer containing 25 mM octyl glucoside, and 0.05% sodium azide. Protein concentrations were determined by a micro BCA assay (Pierce).
Solid-phase inhibition assays are established for the inhibition of binding of the vitronectin receptor aVβ3 to their corresponding protein ligands by the cyclic peptides. Inhibitory activities (IC50) of cyclic RGD containing peptides for the binding of vitronectin (VN). Integrins are used as immobilized ligands.

[2] = tested on: full thickness skin model (human primary epidermal keratinocytes and human fibroblasts); assay: cDNA-microarray gene expression profile of treated human skin model (PIQOR-skin); assay type: cell-based; settings: 0.5 μM, 4 days incubation
Description: The following is a study to determine the gene expression profiles of Cyclo-(Arg-Gly-Asp-DPhe-Acha) (=CPPC 1) treated human skin.
For the analysis of deregulated gene expression induced by substance CPPC 1, treated and control samples from a human skin model are analyzed as follows: • A full thickness skin model (human primary epidermal keratinocytes and human fibroblasts), such as the Phenion® FTSM, commercially available from Phenion GmbH & Co. KG, Düsseldorf, Germany, is used. Cells are not pooled or genetically modified. • Gene expression analysis is carried out with PIQOR™-skin cDNA microarrays, which contains 1312 genes that are involved in target pathways related to stress, inflammation, pigmentation and depigmentation, moisturization, anti-ageing and hair follicle development in humans. For instance, cell cycle, apoptosis, DNA repair, oxidative metabolism, angiogenesis, cell adhesion cell-matrix interactions and signaling. Genes are represented with four replicate spots. • Treatment with CPPC 1 is performed in 0.5 μM concentration (4 days incubation, n=3 per condition). […] Profiling of Gene Expression—Input Genes
A ratio (log 2) value of zero indicates no regulation, whereas positive (log 2) values indicate an upregulation and negative (log 2) values a downregulation of the relevant gene.
The deregulated genes for skin samples treated with 0.5 μM concentration is used for further analysis.

av-beta3/5 = assay: Integrin ligand activity (in vitro studies); assay type: binding
av-beta6 = av-beta6 (Homo sapiens, UniProt P06756+P18564); assay: Integrin ligand activity (in vitro studies); assay type: binding
integrin αVβ3 = integrin αVβ3 (Homo sapiens, UniProt P05106+P06756); assay: Isolated integrin-ligand binding assay (ligand inhibition, immobilized integrin, biotinylated vitronectin); settings: immobilized recombinant human integrin, biotinylated human serum vitronectin as ligand
Description: i) Isolated Integrin-Ligand Binding Assay The production of recombinant human integrin is known in the literature. […] In brief, 96-well ELISA plates are coated by adsorption from neutral aqueous buffers of 1 microg/ml integrin. After blocking residual sites on the plate with BSA, biotinylated ligands (1 microg/ml) are added in the presence or absence of serial dilutions of inhibitor, and after incubation and washing, bound biotin is detected with peroxidase-coupled anti-biotin antibody and TMB substrate.

human placental αVβ3 = target: T2, human placental αVβ3 (Homo sapiens, UniProt P05106+P06756); assay: Receptor inhibition assay, binding of biotinylated ligands to human placental αVβ3; settings: purified human placental αVβ3, biotinylated vitronectin, 3 h at 30° C.; read-out: IC50 VN: αvβ3
T2 construct: Purified human integrin αVβ3 from term placenta; from tissue; host or cells: human term placenta
Description: After 3 h at 30° C. bound ligand was measures by anti-biotin—alkaline phosphatase detection.

T2 sequence (P06756 31-889 limits assumed): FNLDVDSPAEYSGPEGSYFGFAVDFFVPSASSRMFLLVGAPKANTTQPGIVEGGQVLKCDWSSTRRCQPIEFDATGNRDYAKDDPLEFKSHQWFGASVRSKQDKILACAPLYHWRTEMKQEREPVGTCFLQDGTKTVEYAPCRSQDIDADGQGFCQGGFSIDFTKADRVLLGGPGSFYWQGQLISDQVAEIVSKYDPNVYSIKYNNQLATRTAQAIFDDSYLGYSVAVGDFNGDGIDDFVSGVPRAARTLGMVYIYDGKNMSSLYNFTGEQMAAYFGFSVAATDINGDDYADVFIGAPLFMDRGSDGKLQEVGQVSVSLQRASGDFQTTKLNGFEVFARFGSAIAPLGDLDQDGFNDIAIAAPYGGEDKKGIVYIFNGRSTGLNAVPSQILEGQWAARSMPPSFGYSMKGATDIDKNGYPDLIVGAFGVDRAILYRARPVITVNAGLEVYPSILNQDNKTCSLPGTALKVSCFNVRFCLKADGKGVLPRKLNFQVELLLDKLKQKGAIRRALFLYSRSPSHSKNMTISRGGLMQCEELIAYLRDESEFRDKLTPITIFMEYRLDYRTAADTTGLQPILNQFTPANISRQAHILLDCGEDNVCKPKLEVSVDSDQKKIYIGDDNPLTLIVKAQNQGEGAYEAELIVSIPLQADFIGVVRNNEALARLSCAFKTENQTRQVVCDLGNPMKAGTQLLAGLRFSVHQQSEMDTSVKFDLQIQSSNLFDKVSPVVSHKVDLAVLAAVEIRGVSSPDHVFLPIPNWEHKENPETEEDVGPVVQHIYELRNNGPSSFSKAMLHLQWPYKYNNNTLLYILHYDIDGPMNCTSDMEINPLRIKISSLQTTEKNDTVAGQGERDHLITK
T2 sequence (P06756 891-1048 partner limits assumed): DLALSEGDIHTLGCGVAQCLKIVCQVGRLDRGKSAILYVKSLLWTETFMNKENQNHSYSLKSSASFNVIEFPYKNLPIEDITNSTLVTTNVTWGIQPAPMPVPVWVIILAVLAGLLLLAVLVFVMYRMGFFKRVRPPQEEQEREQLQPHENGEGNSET
T2 sequence (P05106 27-788): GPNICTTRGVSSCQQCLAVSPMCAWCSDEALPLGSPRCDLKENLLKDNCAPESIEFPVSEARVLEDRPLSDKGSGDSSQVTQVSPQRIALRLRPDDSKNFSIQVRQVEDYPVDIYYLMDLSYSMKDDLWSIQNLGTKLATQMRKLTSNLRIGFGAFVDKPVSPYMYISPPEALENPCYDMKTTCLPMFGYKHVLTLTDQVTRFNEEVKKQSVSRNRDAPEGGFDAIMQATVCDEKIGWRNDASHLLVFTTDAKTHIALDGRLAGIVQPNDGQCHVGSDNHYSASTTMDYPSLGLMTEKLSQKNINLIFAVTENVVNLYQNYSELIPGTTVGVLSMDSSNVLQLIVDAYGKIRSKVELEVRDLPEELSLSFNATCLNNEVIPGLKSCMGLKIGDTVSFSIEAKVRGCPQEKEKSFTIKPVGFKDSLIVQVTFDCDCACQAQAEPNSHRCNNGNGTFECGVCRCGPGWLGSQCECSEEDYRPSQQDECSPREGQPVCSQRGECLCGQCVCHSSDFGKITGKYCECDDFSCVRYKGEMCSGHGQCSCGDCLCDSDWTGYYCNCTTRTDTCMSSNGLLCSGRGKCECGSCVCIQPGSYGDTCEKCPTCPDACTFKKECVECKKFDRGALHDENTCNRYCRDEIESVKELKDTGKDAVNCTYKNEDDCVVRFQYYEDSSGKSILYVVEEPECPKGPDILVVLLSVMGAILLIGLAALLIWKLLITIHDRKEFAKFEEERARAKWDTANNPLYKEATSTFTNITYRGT
T1 sequence (P06756 31-889 limits assumed): as the sequence (P06756 31-889 limits assumed) above
T1 sequence (P06756 891-1048 partner limits assumed): as the sequence (P06756 891-1048 partner limits assumed) above
T1 sequence (P05106 27-788): as the sequence (P05106 27-788) above
av-beta6, sequence (P06756 31-1048): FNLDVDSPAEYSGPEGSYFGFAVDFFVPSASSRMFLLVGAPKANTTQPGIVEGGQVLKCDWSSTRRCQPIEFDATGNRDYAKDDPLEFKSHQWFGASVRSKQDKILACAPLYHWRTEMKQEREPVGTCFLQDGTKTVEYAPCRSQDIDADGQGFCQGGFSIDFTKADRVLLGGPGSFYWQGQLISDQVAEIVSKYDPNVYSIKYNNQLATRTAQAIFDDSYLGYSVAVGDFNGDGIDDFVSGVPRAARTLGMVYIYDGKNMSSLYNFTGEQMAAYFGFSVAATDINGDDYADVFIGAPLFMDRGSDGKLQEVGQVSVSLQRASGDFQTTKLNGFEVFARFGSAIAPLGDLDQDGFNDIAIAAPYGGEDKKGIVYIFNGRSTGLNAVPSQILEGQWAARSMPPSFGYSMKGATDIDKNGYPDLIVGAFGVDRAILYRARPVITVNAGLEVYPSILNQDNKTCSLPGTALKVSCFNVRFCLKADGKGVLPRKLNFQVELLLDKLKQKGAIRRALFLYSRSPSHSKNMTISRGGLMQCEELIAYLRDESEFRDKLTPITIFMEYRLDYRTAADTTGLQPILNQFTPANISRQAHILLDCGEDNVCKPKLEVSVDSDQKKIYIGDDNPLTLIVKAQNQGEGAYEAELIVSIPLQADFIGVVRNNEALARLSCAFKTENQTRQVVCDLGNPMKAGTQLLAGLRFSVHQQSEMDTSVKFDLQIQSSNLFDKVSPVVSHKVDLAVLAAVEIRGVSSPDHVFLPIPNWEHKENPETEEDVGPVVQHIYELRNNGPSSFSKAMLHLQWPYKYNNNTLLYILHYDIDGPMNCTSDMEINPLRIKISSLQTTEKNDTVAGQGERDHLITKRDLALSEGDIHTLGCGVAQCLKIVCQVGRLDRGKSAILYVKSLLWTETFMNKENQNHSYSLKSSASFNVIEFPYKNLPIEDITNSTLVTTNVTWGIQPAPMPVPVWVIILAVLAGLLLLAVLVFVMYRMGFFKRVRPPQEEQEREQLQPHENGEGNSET
av-beta6, sequence (P18564 22-788): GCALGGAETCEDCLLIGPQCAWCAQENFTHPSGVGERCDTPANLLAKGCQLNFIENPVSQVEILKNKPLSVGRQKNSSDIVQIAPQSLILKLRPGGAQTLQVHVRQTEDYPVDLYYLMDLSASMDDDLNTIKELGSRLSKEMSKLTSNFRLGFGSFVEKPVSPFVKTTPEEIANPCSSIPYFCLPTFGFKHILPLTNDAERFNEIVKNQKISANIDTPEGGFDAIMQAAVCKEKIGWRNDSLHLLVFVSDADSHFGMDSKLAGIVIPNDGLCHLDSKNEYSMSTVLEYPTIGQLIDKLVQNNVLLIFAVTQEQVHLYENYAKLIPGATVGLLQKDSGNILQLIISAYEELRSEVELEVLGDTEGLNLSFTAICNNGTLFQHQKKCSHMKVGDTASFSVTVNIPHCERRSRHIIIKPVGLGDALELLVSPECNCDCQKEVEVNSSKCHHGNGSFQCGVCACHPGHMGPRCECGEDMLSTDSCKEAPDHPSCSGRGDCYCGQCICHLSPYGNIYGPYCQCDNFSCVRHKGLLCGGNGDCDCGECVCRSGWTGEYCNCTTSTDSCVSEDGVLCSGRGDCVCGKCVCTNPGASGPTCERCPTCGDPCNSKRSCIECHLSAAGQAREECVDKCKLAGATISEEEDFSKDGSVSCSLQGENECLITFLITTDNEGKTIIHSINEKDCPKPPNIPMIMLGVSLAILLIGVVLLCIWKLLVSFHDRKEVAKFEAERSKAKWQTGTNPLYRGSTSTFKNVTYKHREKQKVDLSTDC
integrin αVβ3, sequence (P06756 31-1048): as the sequence (P06756 31-1048) above
integrin αVβ3, sequence (P05106 27-788): as the sequence (P05106 27-788) above

In the case of `CC(C)[C@@H]1NC(=O)[C@H](Cc2ccccc2)NC(=O)[C@H](CC(=O)O)NC(=O)[C@@H](C)NC(=O)[C@H](CCCNC(=N)N)NC1=O` [Cyclo-(Arg-DAla-Asp-Phe-Val)] (cyclo(R[dA]DFV)), the IC50 [1] is reported as over 240 µM.

With `N=C(N)NCCC[C@@H]1NC(=O)C2(CCCCC2)NC(=O)[C@@H](Cc2ccccc2)NC(=O)[C@H](CC(=O)O)NC(=O)CNC1=O` [CPPC 1, Cyclo-(Arg-Gly-Asp-DPhe-Acha)] the “ADAM9 gene expression, Compound vs. Control, ratio Log(2) value” [2] was 0.4854, the “ASC gene expression, Compound vs. Control, ratio Log(2) value” [2] was −0.304 and the “BCL2L1 gene expression, Compound vs. Control, ratio Log(2) value” [2] was 0.263. For the same compound, the “BMP-3 gene expression in treated skin” value [2] was “downregulated”, the “C19orf10 gene expression, Compound vs. Control, ratio Log(2) value” [2] was 0.263 and the “CASP8 gene expression, Compound vs. Control, ratio Log(2) value” [2] was −0.304. The “CCNB2 gene expression, Compound vs. Control, ratio Log(2) value” [2] was 0.4647, the “CD81 gene expression, Compound vs. Control, ratio Log(2) value” [2] was 0.251 and the “CDK2 gene expression, Compound vs. Control, ratio Log(2) value” [2] was 0.2265. For the same compound, the “CDK4 gene expression, Compound vs. Control, ratio Log(2) value” [2] was 0.1375, the “CLU gene expression, Compound vs. Control, ratio Log(2) value” [2] was 0.4436 and the “DDR2 gene expression, Compound vs. Control, ratio Log(2) value” [2] was 0.2869. For the same compound, the “E2F3 gene expression, Compound vs. Control, ratio Log(2) value” [2] was −0.3959, the “EGF gene expression, Compound vs. Control, ratio Log(2) value” [2] was −0.2345 and the “ELA2 gene expression, Compound vs. Control, ratio Log(2) value” [2] was −0.2345. For the same compound, the “FBLN1_4 gene expression, Compound vs. Control, ratio Log(2) value” [2] was 0.516, the “FBLN2 gene expression, Compound vs. Control, ratio Log(2) value” [2] was 0.3785 and the “FGF1 gene expression, Compound vs. Control, ratio Log(2) value” [2] was 0.5059. For the same compound, the “FLOT2 gene expression, Compound vs. Control, ratio Log(2) value” [2] was 0.4542, the “GDF10 gene expression, Compound vs. Control, ratio Log(2) value” [2] was −0.2863 and the “IGFBP4 gene expression, Compound vs. Control, ratio Log(2) value” [2] was 0.4854. The “IL2 gene expression, Compound vs. Control, ratio Log(2) value” [2] was −0.5778, the “IL6 gene expression, Compound vs. Control, ratio Log(2) value” [2] was 0.4854 and the “IL7 gene expression, Compound vs. Control, ratio Log(2) value” [2] was −0.3585. For the same compound, the “IL8 gene expression, Compound vs. Control, ratio Log(2) value” [2] was 0.3219, the “IL17A gene expression, Compound vs. Control, ratio Log(2) value” [2] was −0.6666 and the “JUN gene expression, Compound vs. Control, ratio Log(2) value” [2] was −0.5778. The “KRT2A gene expression, Compound vs. Control, ratio Log(2) value” [2] was 0.4005, the “KRT9 gene expression, Compound vs. Control, ratio Log(2) value” [2] was −0.2688 and the “KRT19 gene expression, Compound vs. Control, ratio Log(2) value” [2] was 0.3334. The “LCN2 gene expression, Compound vs. Control, ratio Log(2) value” [2] was −0.5564, the “MCL1 gene expression, Compound vs. Control, ratio Log(2) value” [2] was 0.3674 and the “PGF gene expression, Compound vs. Control, ratio Log(2) value” [2] was 0.2141. For the same compound, the “PTGS2 gene expression, Compound vs. Control, ratio Log(2) value” [2] was 0.4222, the “QSOX1 gene expression, Compound vs. Control, ratio Log(2) value” [2] was 0.433 and the “S100A12 gene expression, Compound vs. Control, ratio Log(2) value” [2] was −0.2515. The “SDCBP gene expression, Compound vs. Control, ratio Log(2) value” [2] was 0.3896, the “SEPRASE gene expression, Compound vs. Control, ratio Log(2) value” [2] was 0.546 and the “SOCS1 gene expression, Compound vs. Control, ratio Log(2) value” [2] was 0.3334. The “SPARC gene expression, Compound vs. Control, ratio Log(2) value” [2] was 0.3674, the “SPRR1A gene expression, Compound vs. Control, ratio Log(2) value” [2] was −0.304 and the “STAT1 gene expression, Compound vs. Control, ratio Log(2) value” [2] was 0.3103. For the same compound, the “STAT5B gene expression, Compound vs. Control, ratio Log(2) value” [2] was −0.1844, the “TNF gene expression, Compound vs. Control, ratio Log(2) value” [2] was −0.304 and the “TNFC gene expression, Compound vs. Control, ratio Log(2) value” [2] was −0.3401. For the same compound, the “TNFRSF1B gene expression, Compound vs. Control, ratio Log(2) value” [2] was −0.3585, the “TNFRSF25 gene expression, Compound vs. Control, ratio Log(2) value” [2] was −0.2688 and the “TNFSF10 gene expression, Compound vs. Control, ratio Log(2) value” [2] was −0.2688. For the same compound, the “TNFSF13B gene expression, Compound vs. Control, ratio Log(2) value” [2] was −0.2688, the “TUBB gene expression, Compound vs. Control, ratio Log(2) value” [2] was 0.6599 and the “TXLN gene expression, Compound vs. Control, ratio Log(2) value” [2] was −0.8365. The “bone morphogenic proteins (BMPs) gene expression in treated skin” value [2] was “downregulated”, the “fibulins gene expression in treated skin” value [2] was “upregulated” and the “number of deregulated genes selected (of 1312 genes on the microarray)” value ([2]; p<0.05, at least […] deregulation) was 345. The “activity as av-beta3/5 ligand” value (av-beta3/5) was “highly active” and the “activity as av-beta6 ligand” value (av-beta6) was “low active”.

`C[C@H]1C(=O)N[C@@H](CCCNC(=N)N)C(=O)NCC(=O)N[C@@H](CC(=O)O)C(=O)N[C@H](Cc2ccccc2)C(=O)N1C` [Cyclo-(Arg-Gly-Asp-DPhe-(NMe)Ala)] was tested, and the IC50 (integrin αVβ3) was 0.024 µM.

With `CC(C)(C)[C@@H]1NC(=O)[C@@H](Cc2ccc(F)cc2)NC(=O)[C@H](CC(=O)O)NC(=O)CNC(=O)[C@H](CCCNC(=N)N)NC1=O` [Cyclo-(Arg-Gly-Asp-DPhe(4-F)-Tle)] the IC50 (human placental αVβ3) was 0.003 µM.

From patent US10278911B2, “Compositions containing cyclic peptides and methods of use” (Merck Patent GmbH, priority 2008, dated 2019)
